Experimental data: patent US20040138160A1, “Preventive/therapeutic method for cancer” (priority 2001, published 2004)

How the values were obtained:
HER2 = HER2 (Homo sapiens, UniProt P04626); experiment: Suppression of receptor tyrosine-phosphorylation in human breast cancer cells (intracellular HER2 phosphorylation, MCF-7, heregulin stimulation); assay type: cell-based; design: endogenous in cells; host or cells: MCF-7; settings: MCF-7 cells; test compound 2 hours, then heregulin 0.8 μg/ml 5 minutes; read-out: Intracellular HER2 phosphorylation inhibition MCF-7 (IC50:μM)
Experimental: Cell suspension of Human breast cancer cell line MCF-7 (500 μl), suspended at 300,000 cells/0.5 mL, was placed in a 24-well plate and cultured at 37° C. in a 5% carbon dioxide gas incubator. On the following day, 250 μl of a solution of 4-fold serially diluted test compound was added. After 2 hours, 250 μl of a heregulin solution, prepared to a final concentration of 0.8 μg/ml, was added. After 5 minutes, a buffer solution for lysis of extract solution was added to stop the reaction and to extract and yield a cell-lysate protein. After this cell-lysate protein was subjected to SDS-polyacrylamide gel electrophoresis to separate the protein, the protein in the gel was blotted onto a nylon filter. This filter was reacted with an anti-phosphotyrosine specific antibody; the portion containing phosphotyrosine on the filter was luminated using the ECL method to photosensitize an X-ray film. The amount of the film photosensitization was determined using an image analyzer.

[1] = tested on: human breast cancer cell line BT-474; experiment: Inhibitory action on breast cancer cell line BT-474 proliferation in vitro (SRB); assay type: cell-based; settings: heregulin 0.04 μg/ml, cultured 5 days, read-out: Inhibition of cell proliferation BT-474 (IC50:μM)
Experimental: Cell suspension of human breast cancer cell line BT-474 (100 μl) suspended at 1,000 cells/100 μl), was placed in a 96-well microwell plate and cultured at 37° C. in a 5% carbon dioxide gas incubator. On the following day, 100 μl of a solution of each test compound, previously diluted 2-fold with a heregulin solution prepared to a final concentration of 0.04 μg/ml, was added, and the cells were cultured for 5 days. After the culture medium containing the test compound was removed, the cells were washed and fixed with 5% trichloroacetic acid, after which a 0.4% (w/v) SRB solution (dissolved in 1% acetic acid) was added to fix and stain the cells (Skehan et al., Journal of the National Cancer Institute, Vol. 82, pp. 1107-1112, 1990). After the pigment solution was removed and the plate was washed with a 1% acetic acid solution, 100 μl of an extractant (10 mM Tris buffer solution) was added to extract and dissolve the pigment; absorbance was measured at an absorption wavelength of 550 nm to quantify the amount of cells as protein content. Taking as 100% the absorbance for the control group, which received no test compound solution, the ratio of the absorbance for each treatment group was determined, and the compound concentration required to achieve 50% suppression of the residual cell content relative to the control (IC50 value) was calculated.

Chain of HER2 (P04626 23-1255): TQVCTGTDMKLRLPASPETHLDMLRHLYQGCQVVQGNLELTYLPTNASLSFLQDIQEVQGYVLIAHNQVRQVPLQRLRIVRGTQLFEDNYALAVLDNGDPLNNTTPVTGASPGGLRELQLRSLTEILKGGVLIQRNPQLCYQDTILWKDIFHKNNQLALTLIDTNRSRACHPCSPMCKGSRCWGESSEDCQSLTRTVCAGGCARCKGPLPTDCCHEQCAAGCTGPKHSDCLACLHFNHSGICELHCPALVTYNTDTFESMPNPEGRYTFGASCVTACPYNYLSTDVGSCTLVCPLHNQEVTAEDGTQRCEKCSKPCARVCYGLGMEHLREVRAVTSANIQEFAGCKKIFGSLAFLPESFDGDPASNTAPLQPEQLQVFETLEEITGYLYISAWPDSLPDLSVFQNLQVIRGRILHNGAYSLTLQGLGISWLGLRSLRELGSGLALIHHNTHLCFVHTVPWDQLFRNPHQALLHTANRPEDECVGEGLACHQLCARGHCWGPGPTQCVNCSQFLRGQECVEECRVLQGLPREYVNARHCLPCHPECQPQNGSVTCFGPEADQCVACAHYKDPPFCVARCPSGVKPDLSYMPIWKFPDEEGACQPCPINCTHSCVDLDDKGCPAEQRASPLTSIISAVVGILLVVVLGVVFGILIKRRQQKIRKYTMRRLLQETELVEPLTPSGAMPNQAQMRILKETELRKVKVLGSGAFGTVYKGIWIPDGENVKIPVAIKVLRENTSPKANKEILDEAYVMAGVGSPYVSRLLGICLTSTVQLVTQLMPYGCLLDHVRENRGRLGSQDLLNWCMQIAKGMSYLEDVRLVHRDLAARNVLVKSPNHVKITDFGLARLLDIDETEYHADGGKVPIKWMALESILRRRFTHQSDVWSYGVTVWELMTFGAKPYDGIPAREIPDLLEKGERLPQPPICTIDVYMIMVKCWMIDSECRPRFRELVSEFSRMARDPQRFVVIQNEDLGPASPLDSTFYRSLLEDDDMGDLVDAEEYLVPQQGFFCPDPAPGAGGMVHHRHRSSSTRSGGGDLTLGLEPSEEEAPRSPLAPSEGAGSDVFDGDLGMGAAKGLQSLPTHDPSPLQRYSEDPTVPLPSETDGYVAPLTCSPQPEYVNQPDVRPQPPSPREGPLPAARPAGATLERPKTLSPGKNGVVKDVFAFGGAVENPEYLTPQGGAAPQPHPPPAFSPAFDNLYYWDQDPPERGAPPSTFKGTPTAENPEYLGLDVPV

| Compound | melting point [°C] | IC50 (HER2) [µM] | IC50 [1] [µM] |
| --- | --- | --- | --- |
| FC(F)(F)c1ccc(/C=C/c2nc(COc3ccc(CCCn4ccnn4)cc3)co2)cc1 [Compound B5, 1-(3-{4-[(2-((E)-2-[4-(trifluoromethyl)phenyl]ethenyl)-1,3-oxazol-4-yl)methoxy]phenyl}propyl)-1H-1,2,3-triazole] | 157 to 158 |  |  |
| FC(F)(F)c1ccc(/C=C/c2nc(COc3cccc(CCCn4ccnn4)c3)co2)cc1 [Compound B6, 1-(3-{3-[(2-{(E)-2-[4-(trifluoromethyl)phenyl]ethenyl}-1,3-oxazol-4-yl)methoxy]phenyl}propyl)-1H-1,2,3-triazole] | 115 to 116 |  |  |
| Fc1ccc(/C=C/c2nc(COc3ccc(CCCCn4ccnn4)cc3)co2)c(F)c1 [Compound B7, 1-{4-[4-({2-[(E)-2-(2,4-difluorophenyl)ethenyl]-1,3-oxazol-4-yl}methoxy)phenyl]butyl}-1H-1,2,3-triazole] | 115 to 117 |  |  |
| Fc1ccc(/C=C/c2nc(COc3cccc(CCCn4ccnn4)c3)co2)c(F)c1 [Compound B8, 1-{3-[3-({2-[(E)-2-(2,4-difluorophenyl)ethenyl]-1,3-oxazol-4-yl}methoxy)phenyl]propyl}-1H-1,2,3-triazole] | 89 to 90 |  |  |
| Cc1ccc(/C=C/c2nc(COc3ccc(CCCCn4ccnc4CCO)cc3)co2)cc1 [Compound B10, 2-[1-[4-[4-[[2-[(E)-2-(4-methylphenyl)ethenyl]-1,3-oxazol-4-yl]methoxy]phenyl]butyl]-1H-imidazol-2-yl]-1-ethanol] | 108 to 109 |  |  |
| Cc1cccc(/C=C/c2nc(COc3ccc(CCCCn4ccnc4CCO)cc3)co2)c1 [Compound B11, 2-[1-[4-[4-[[2-[(E)-2-(3-methylphenyl)ethenyl]-1,3-oxazol-4-yl]methoxy]phenyl]butyl]-1H-imidazol-2-yl]-1-ethanol] | 109 to 111 |  |  |
| Cc1ccccc1/C=C/c1nc(COc2ccc(CCCCn3ccnc3CCO)cc2)co1 [Compound B12, 2-[1-[4-[4-[[2-[(E)-2-(2-methylphenyl)ethenyl]-1,3-oxazol-4-yl]methoxy]phenyl]butyl]-1H-imidazol-2-yl]-1-ethanol] | 91 to 93 |  |  |
| CCc1ccc(/C=C/c2nc(COc3ccc(CCCCn4ccnc4CCO)cc3)co2)cc1 [Compound B13, 2-[1-[4-[4-[[2-[(E)-2-(4-ethylphenyl)ethenyl]-1,3-oxazol-4-yl]methoxy]phenyl]butyl]-1H-imidazol-2-yl]-1-ethanol] | 94 to 95 |  |  |
| OCCc1nccn1CCCCc1ccc(OCc2coc(/C=C/c3ccc(F)cc3)n2)cc1 [Compound B14, 2-(1-{4-[4-({2-[(E)-2-(4-fluorophenyl)ethenyl]-1,3-oxazol-4-yl}methoxy)phenyl]butyl)-1H-imidazol-2-yl)-1-ethanol] | 130 to 132 |  |  |
| OCCc1nccn1CCCCc1ccc(OCc2coc(/C=C/c3ccc(Cl)cc3)n2)cc1 [Compound B15, 2-[1-[4-[4-[[2-[(E)-2-(4-chlorophenyl)ethenyl]-1,3-oxazol-4-yl]methoxy]phenyl]butyl]-1H-imidazol-2-yl]-1-ethanol] | 127 to 128 |  |  |
| OCCc1nccn1CCCCc1ccc(OCc2coc(/C=C/c3ccc(Br)cc3)n2)cc1 [Compound B16, 2-[1-[4-[4-[[2-[(E)-2-(4-bromophenyl)ethenyl]-1,3-oxazol-4-yl]methoxy]phenyl]butyl]-1H-imidazol-2-yl]-1-ethanol] | 149 to 150 |  |  |
| OCCc1nccn1CCCCc1ccc(OCc2coc(/C=C/c3ccc(F)cc3F)n2)cc1 [Compound B19, 2-[1-[4-[4-[[2-[(E)-2-(2,4-difluorophenyl)ethenyl]-1,3-oxazol-4-yl]methoxy]phenyl]butyl]-1H-imidazol-2-yl]-1-ethanol] | 93 to 95 |  |  |
| OCCc1nccn1CCCc1ccc(OCc2coc(/C=C/c3ccc(F)cc3F)n2)cc1 [Compound B20, 2-[1-[3-[4-[[2-[(E)-2-(2,4-difluorophenyl)ethenyl]-1,3-oxazol-4-yl]methoxy]phenyl]propyl]-1H-imidazol-2-yl]-1-ethanol] | 94 to 96 |  |  |
| Cc1cccc(/C=C/c2nc(COc3ccc(CCCCc4c[nH]c(CC(O)CO)n4)cc3)co2)c1 (stereo not drawn) [Compound B22, 3-(4-{4-[4-({2-[(E)-2-(3-methylphenyl)ethenyl]-1,3-oxazol-4-yl}methoxy)phenyl]butyl}-1H-imidazol-2-yl)-1,2-propanediol] |  | 1.9 | < 0.05 |
| OCC(O)Cc1nccn1CCCCc1ccc(OCc2coc(/C=C/c3ccc(F)cc3)n2)cc1 (stereo not drawn) [Compound B23, 3-(1-{4-[4-({2-[(E)-2-(4-fluorophenyl)ethenyl]-1,3-oxazol-4-yl}methoxy)phenyl]butyl}-1H-imidazol-2-yl)-1,2-propanediol] | 114 to 116 |  |  |
| OCC(O)Cc1nccn1CCCCc1ccc(OCc2coc(/C=C/c3ccc(C(F)(F)F)cc3)n2)cc1 (stereo not drawn) [Compound B24, 3-[1-(4-(4-[(2-{(E)-2-[4-(trifluoromethyl)phenyl]ethenyl}-1,3-oxazol-4-yl)methoxy]phenyl]butyl)-1H-imidazol-2-yl]-1,2-propanediol] | 142 to 143 |  |  |
| OCC(O)Cc1nccn1CCCc1cccc(OCc2coc(/C=C/c3ccc(C(F)(F)F)cc3)n2)c1 (stereo not drawn) [Compound B25, 3-[1-(3-{3-[(2-{(E)-2-[4-(trifluoromethyl)phenyl]ethenyl}-1,3-oxazol-4-yl)methoxy]phenyl}propyl)-1H-imidazol-2-yl]-1,2-propanediol] | 102 to 104 |  |  |
| OCC(O)Cc1nccn1CCCCc1ccc(OCc2coc(/C=C/c3ccc(F)cc3F)n2)cc1 (stereo not drawn) [Compound B26, 3-(1-{4-[4-({2-[(E)-2-(2,4-difluorophenyl)ethenyl]-1,3-oxazol-4-yl}methoxy)phenyl]butyl}-1H-imidazol-2-yl)-1,2-propanediol] | 126 to 128 |  |  |
| OCC(O)Cc1nccn1CCCc1cccc(OCc2coc(/C=C/c3ccc(F)cc3F)n2)c1 (stereo not drawn) [Compound B27, 3-(1-{3-[3-({2-[(E)-2-(2,4-difluorophenyl)ethenyl]-1,3-oxazol-4-yl}methoxy)phenyl]propyl}-1H-imidazol-2-yl)-1,2-propanediol] | 92 to 94 |  |  |
| OCC(O)Cc1nccn1CCCCc1ccc(OCc2coc(/C=C/c3c(F)cccc3F)n2)cc1 (stereo not drawn) [Compound B28, 3-[1-[4-[4-[[2-[(E)-2-(2,6-difluorophenyl)ethenyl]-1,3-oxazol-4-yl]methoxy]phenyl]butyl]-1H-imidazol-2-yl]-1,2-propanediol] | 123 to 125 |  |  |
